{"source": "patent US9067926B2", "about": "“Fluoromethyl-5,6-dihydro-4H-[1,3]OXAZINES” (F. Hoffmann-La Roche AG, priority 2012, dated 2015)", "key": {"BACE1": {"molecular_target": "T1, BACE1 (Homo sapiens, UniProt P56817)", "T1 construct": "endogenous in cells; host or cells: HEK293 APP cells", "T1 sequence (P56817 46-501)": "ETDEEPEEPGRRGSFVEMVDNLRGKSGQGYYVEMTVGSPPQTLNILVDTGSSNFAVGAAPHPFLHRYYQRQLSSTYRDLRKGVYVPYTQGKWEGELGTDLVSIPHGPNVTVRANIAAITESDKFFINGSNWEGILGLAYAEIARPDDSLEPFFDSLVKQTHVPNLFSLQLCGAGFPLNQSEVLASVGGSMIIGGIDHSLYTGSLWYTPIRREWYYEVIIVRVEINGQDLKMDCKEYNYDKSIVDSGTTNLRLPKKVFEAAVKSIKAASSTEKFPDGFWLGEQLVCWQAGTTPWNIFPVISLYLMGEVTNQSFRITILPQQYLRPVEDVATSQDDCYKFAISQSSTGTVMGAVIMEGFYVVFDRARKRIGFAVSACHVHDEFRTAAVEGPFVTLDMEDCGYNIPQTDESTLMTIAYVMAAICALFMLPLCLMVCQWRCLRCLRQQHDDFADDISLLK", "assay": "Cellular Aβ-lowering assay (Abeta 40 AlphaLISA)", "assay_type": "cell-based", "settings": "HEK293 APP cells, 18-20 hrs incubation, Aβ 40 in culture supernatant; read-out: BACE1 cell act. Aβ40 IC50", "protocol": "Cellular Aβ-Lowering Assay:\nThe Abeta 40 AlphaLISA Assay can be used. The HEK293 APP cells were seeded in 96 well Microtiter plates in cell culture medium (Iscove's, plus 10% (vv) fetal bovine serum, penicillinstreptomycin) to about 80% confluency and the compounds were added at a 3× concentration in 13 volume of culture medium (final DMSO concentration was kept at 1% vv). After 18-20 hrs incubation at 37° C. and 5% CO2 in a humidified incubator, the culture supernatants were harvested for the determination of Aβ 40 concentrations using Perkin-Elmer Human Amyloid beta 1-40 (high specificity) Kit (Cat# AL275C).\nLevels of Aβ 40 in the culture supernatants were calculated as percentage of maximum signal (cells treated with 1% DMSO without inhibitor). The IC50 values were calculated using the Excel XLfit software."}, "[1]": {"assay": "Detection of glutathione conjugates (GSH)", "assay_type": "in vitro ADME, human", "set-up": "key: NF = in vitro no adduct formation relative to control", "settings": "in vitro, relative to control", "text": "Detection of Glutathione Conjugates (GSH) The assay conditions for the detection of glutathione conjugates follow the procedure described by C. M. Dieckhaus et al. in Chem. Res. Toxicol. 2005, 18, 630-63."}, "Aβ40 in brain": {"tested_on": "Aβ40 in brain", "assay": "In vivo inhibition of Aβ40 in brain of wild-type mice", "settings": "Mus musculus, po; 10 mg/kg p.o., brain Aβ40 after 4 h, female C57Bl/6J mice; read-out: in vivo effect, Percentage of control @ 10 mg/kg p.o", "protocol": "In Vivo Experiments. […] The test compound was dissolved in 5% EtOH, 10% Solutol and was applied per os at 10 ml/kg. After 4 h the animals were sacrificed and brain and plasma were collected. The brain was cut into halves and immediately frozen on dry ice. Brain was used for measurement of Aβ40 and plasma was used for determination of compound exposure. […] Brain tissue was homogenized in 2% DEA buffer in a Roche […] (20'', 4000 rpm) and subsequently centrifuged for 1 h at 100'000 g. DEA was reduced to 0.2% in 50 mM NaCl and one half of the DEA lysate was passed over an Oasis Solid Phase extraction plate (Waters; Cat.Nr. 186000679) which had been activated with MeOH and equilibrated in dH2O (1 ml each). After washes in 10% and 30% MeOH (1 ml each) the AP-peptides were eluted in 0.8 ml 2% NH4OH in 90% MeOH. […] Aβ40 was determined by an AlphaLISA assay (Perkin Elmer). In a white 96well half-area microplate (Perkin Elmer Cat.Nr. 6005561), 20 μl of the reconstituted sample were mixed with 5 μl biotinylated BAP-24 (specific for C-terminus of Aβ40 (Brockhaus, M.; Grunberg, J.; Rohrig, S.; Loetscher, H.; Wittenburg, N.; Baumeister, R.; Jacobsen, […]. Caspase-mediated cleavage is not required for the activity of presenilins in amyloidogenesis and NOTCH signaling. […] The mix was incubated for 1 h at RT in the dark. Then 20 μl Streptavin-coated Donor Beads (Perkin Elmer Cat. Nr. 6760002, final dilution 1:125) were added and this final mix was incubated in the dark for another 30 min at r.t. before RFU was measured in an AlphaScreen Reader(Perkin Elmer Envision 2104)."}, "[2]": {"molecular_target": "T2, recombinant human cathepsin E (Homo sapiens, UniProt P14091)", "T2 construct": "purchased R&D Systems", "T2 sequence (P14091 54-396)": "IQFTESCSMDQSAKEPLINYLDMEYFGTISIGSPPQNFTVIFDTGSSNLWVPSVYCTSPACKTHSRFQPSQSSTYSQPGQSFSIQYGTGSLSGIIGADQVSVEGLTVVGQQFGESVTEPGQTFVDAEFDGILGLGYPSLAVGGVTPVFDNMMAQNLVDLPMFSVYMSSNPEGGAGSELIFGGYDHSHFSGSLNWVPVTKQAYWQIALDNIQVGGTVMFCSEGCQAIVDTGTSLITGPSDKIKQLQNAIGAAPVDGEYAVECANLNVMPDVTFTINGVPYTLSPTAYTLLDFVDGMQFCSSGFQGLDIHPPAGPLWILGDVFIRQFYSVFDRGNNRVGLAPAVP", "assay": "Cathepsin E fluorescent substrate kinetic assay", "assay_type": "biochemical", "settings": "pH 4.5", "text": "Cathepsin D and Cathepsin E Fluorescent Substrate Kinetic Assays\nThe MR121 fluorescence assays described below are based on the fact that MR121 forms a non-fluorescent ground state complex with tryptophan. In solution this formation occurs at millimolar concentrations of tryptophan. The mechanism can be used to design a generic biochemical assay for proteases. […] In absence of protease activity, the substrates remain intact and the MR121 fluorescence is reduced by the high local Trp-concentration. If the substrates are cleaved by the enzymes the MR121 fluorescence is recovered.\nThe fluorescent substrate cathepsin D and cathepsin E kinetic assays were performed at room temperature in 384-well microtiter plates (black with clear flat bottom, non binding surface plates from Corning) in a final volume of 51 μl. The test compounds were serially diluted in DMSO (15 concentrations, 1/3 dilution steps) and 1 μl of diluted compounds were mixed for 10 min with 40 μl of cathepsin D (from human liver, Calbiochem) diluted in assay buffer (100 mM sodium acetate, 0.05% BSA, pH 5.5; final concentration: 200 nM) or with 40 μl of recombinant human cathepsin E (R&D Systems) diluted in assay buffer (100 mM sodium acetate, 0.05% BSA, pH 4.5; final concentration: 0.01 nM). […] The slope in the linear range of the kinetic was calculated and the IC50 of the test compounds were determined using a four parameter equation for curve fitting."}, "CYP3A4": {"molecular_target": "T3, CYP3A4 (Homo sapiens, UniProt P08684)", "T3 construct": "0.2 mg/ml pooled human liver microsomes; from tissue; host or cells: pooled human liver microsomes", "T3 sequence (P08684 whole entry)": "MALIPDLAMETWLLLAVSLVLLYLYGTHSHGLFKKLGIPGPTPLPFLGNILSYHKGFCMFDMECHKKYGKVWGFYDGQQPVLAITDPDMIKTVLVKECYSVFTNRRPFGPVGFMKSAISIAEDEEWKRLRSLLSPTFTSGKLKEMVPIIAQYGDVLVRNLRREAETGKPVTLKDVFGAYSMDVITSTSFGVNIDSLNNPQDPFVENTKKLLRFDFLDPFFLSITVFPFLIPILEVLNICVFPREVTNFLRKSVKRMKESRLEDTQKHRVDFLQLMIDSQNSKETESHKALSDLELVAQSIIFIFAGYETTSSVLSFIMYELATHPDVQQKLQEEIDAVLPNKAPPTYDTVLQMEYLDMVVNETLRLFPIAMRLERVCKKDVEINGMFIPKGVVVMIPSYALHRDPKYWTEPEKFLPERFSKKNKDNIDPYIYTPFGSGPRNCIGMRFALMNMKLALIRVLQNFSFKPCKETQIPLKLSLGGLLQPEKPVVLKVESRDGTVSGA", "assay": "CYP inhibition assay, CYP3A4", "assay_type": "in vitro ADME", "settings": "pooled human liver microsomes, midazolam substrate; read-out: CYP IC50 3A4", "protocol": "(§1) Inhibition of cytochromes P450 (CYPs) 2C9, 2D6 and 3A4 was assessed using human liver microsomes and CYP-selective substrate metabolism reactions. […] Quenched incubates were stored at −20° C. for at least 1 hour before centrifugation (20,000×g, 20 minutes). Supernatants were removed and diluted 1:1 with water prior to analysis using a RapidFire sample injector system and API4000 mass spectrometer. Peak areas for substrate, metabolite and stable-labelled metabolite standard were determined using MS/MS. The peak area ratios between the metabolite generated by the enzymatic reaction and the internal standard were used in subsequent calculations. The percentage of (DMSO) control activity was calculated for each incubate and IC50 values estimated by non-linear regression. Sulfaphenazole, quinidine or ketoconazole were tested in each CYP2C9, CYP2D6 or CYP3A4 inhibition experiment, respectively, to ensure assay sensitivity and reproducibility."}, "CYP2D6": {"molecular_target": "T4, CYP2D6 (Homo sapiens, UniProt P10635)", "T4 construct": "0.2 mg/ml pooled human liver microsomes; from tissue; host or cells: pooled human liver microsomes", "T4 sequence (P10635 whole entry)": "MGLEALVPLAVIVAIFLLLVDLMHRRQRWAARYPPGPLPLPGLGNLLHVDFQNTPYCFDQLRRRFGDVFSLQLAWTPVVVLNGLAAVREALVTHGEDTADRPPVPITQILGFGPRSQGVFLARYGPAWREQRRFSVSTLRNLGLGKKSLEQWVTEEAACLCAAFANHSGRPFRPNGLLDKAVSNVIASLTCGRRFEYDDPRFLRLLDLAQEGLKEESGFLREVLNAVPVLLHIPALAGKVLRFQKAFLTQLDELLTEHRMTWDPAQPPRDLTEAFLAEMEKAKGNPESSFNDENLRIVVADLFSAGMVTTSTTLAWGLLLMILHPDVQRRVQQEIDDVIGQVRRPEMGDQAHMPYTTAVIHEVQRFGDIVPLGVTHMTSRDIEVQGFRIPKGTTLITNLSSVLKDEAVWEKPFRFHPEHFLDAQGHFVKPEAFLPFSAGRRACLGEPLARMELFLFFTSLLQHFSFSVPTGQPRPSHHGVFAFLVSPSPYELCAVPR", "assay": "CYP inhibition assay, CYP2D6", "assay_type": "in vitro ADME", "settings": "pooled human liver microsomes, dextromethorphan substrate; read-out: CYP IC50 2D6", "protocol": "as §1"}}, "note": "pIC50: −log10 of the molar value.", "data": [{"smiles": "NC1=N[C@](CF)(c2cc(NC(=O)c3ccc(OCF)cn3)ccc2F)C[C@@H](C(F)(F)F)O1", "note": "[Example 35, N-(3-((4S,6S)-2-Amino-4-(fluoromethyl)-6-(trifluoromethyl)-5,6-dihydro-4H-1,3-oxazin-4-yl)-4-fluorophenyl)-5-(fluoromethoxy)picolinamide]", "values": [{"measurement": "pIC50", "setting": "BACE1", "result": 7.72}, {"measurement": "GSH human (glutathione adduct formation)", "setting": "[1]", "result": "NF"}, {"measurement": "response vs control in vivo at 10 mg/kg", "setting": "Aβ40 in brain", "result": 74, "unit": "%"}, {"measurement": "pIC50", "setting": "[2]", "result": "< 3.70"}, {"measurement": "pIC50", "setting": "CYP3A4", "result": "< 4.30"}, {"measurement": "pIC50", "setting": "CYP2D6", "result": 5.28}]}, {"smiles": "C[C@@]1(c2cc(NC(=O)c3ccc(OCF)cn3)ccc2F)C[C@@H](C(F)(F)F)OC(N)=N1", "note": "[Example 11, N-(3-((4S,6S)-2-Amino-4-methyl-6-(trifluoromethyl)-5,6-dihydro-4H-1,3-oxazin-4-yl)-4-fluorophenyl)-5-(fluoromethoxy)picolinamide]", "values": [{"measurement": "pIC50", "setting": "BACE1", "result": 8.40}, {"measurement": "GSH human (glutathione adduct formation)", "setting": "[1]", "result": "NF"}, {"measurement": "response vs control in vivo at 10 mg/kg", "setting": "Aβ40 in brain", "result": 87, "unit": "%"}, {"measurement": "pIC50", "setting": "[2]", "result": "< 3.70"}, {"measurement": "pIC50", "setting": "CYP3A4", "result": "< 4.30"}, {"measurement": "pIC50", "setting": "CYP2D6", "result": 5.80}]}, {"smiles": "CC#CCOc1cnc(C(=O)Nc2ccc(F)c([C@]3(C)C[C@@H](C(F)(F)F)OC(N)=N3)c2)cn1", "note": "[Example 22, N-(3-((4S,6S)-2-Amino-4-methyl-6-(trifluoromethyl)-5,6-dihydro-4H-1,3-oxazin-4-yl)-4-fluorophenyl)-5-(but-2-ynyloxy)pyrazine-2-carboxamide]", "values": [{"measurement": "pIC50", "setting": "BACE1", "result": 9.70}, {"measurement": "GSH human (glutathione adduct formation)", "setting": "[1]", "result": "NF"}, {"measurement": "response vs control in vivo at 10 mg/kg", "setting": "Aβ40 in brain", "result": 83, "unit": "%"}, {"measurement": "pIC50", "setting": "[2]", "result": "< 3.70"}, {"measurement": "pIC50", "setting": "CYP3A4", "result": "< 4.30"}, {"measurement": "pIC50", "setting": "CYP2D6", "result": 4.89}]}, {"smiles": "C[C@@]1(c2cc(NC(=O)c3ccc(Cl)cn3)ccc2F)C[C@@H](C(F)(F)F)OC(N)=N1", "note": "[Example 2, N-(3-((4S,6S)-2-amino-4-methyl-6-(trifluoromethyl)-5,6-dihydro-4H-1,3-oxazin-4-yl)-4-fluorophenyl)-5-chloropicolinamide]", "values": [{"measurement": "pIC50", "setting": "BACE1", "result": 8.30}, {"measurement": "GSH human (glutathione adduct formation)", "setting": "[1]", "result": "NF"}, {"measurement": "response vs control in vivo at 10 mg/kg", "setting": "Aβ40 in brain", "result": 93, "unit": "%"}, {"measurement": "pIC50", "setting": "[2]", "result": "< 3.70"}, {"measurement": "pIC50", "setting": "CYP3A4", "result": "< 4.30"}, {"measurement": "pIC50", "setting": "CYP2D6", "result": 5.41}]}]}
